Experimental data reported in ChEMBL document CHEMBL5058643, “Data for DCP probe BI-2081” (2022).
Active and inactive are the calls of the source. The calls are words filed in the database; no cut-off is given here.

Experiments:
[1] = target: Histamine H1 receptor (Homo sapiens) (UniProt P35367); experiment: H1/H Eurofins SafetyScreen44 (BI)
[2] = target: P2X purinoceptor (Oryctolagus cuniculus) (UniProt G1U3D6); experiment: P2X/RB Eurofins SafetyScreen44 (BI); conditions: Compound concentration 10.0 uM
P2X purinoceptor (Oryctolagus cuniculus), sequence (G1U3D6 as listed by the source): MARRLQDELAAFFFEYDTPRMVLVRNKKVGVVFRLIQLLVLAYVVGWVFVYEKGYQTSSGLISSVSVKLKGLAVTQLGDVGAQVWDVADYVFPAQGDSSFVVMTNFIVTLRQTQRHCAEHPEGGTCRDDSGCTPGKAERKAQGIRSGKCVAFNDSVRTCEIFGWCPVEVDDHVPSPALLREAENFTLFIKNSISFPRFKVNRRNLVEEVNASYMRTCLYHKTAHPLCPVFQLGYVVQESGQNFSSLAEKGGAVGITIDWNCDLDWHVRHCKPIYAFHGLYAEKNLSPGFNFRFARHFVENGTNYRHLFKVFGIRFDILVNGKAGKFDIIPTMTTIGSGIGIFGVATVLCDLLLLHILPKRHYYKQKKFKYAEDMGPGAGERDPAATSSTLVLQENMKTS

[3] = target: Histamine H2 receptor (Homo sapiens) (UniProt P25021); conditions: Compound concentration 10.0 uM
Histamine H2 receptor (Homo sapiens), sequence (P25021 whole entry): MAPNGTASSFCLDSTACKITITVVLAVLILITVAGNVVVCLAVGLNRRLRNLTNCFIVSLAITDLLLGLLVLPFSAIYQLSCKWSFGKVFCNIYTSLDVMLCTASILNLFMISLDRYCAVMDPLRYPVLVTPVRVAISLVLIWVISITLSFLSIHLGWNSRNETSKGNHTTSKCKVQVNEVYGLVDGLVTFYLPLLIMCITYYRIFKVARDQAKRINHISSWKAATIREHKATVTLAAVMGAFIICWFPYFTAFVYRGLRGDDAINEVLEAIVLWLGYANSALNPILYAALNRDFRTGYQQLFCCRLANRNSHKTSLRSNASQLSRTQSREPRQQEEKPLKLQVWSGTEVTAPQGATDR

[4] = target: Gamma-aminobutyric acid receptor subunit alpha-1 (Rattus norvegicus) (UniProt P62813); experiment: GABAA MUSCIMOL CENT Eurofins SafetyScreen44 (BI); conditions: Compound concentration 10.0 uM
Gamma-aminobutyric acid receptor subunit alpha-1 (Rattus norvegicus), sequence (P62813 whole entry): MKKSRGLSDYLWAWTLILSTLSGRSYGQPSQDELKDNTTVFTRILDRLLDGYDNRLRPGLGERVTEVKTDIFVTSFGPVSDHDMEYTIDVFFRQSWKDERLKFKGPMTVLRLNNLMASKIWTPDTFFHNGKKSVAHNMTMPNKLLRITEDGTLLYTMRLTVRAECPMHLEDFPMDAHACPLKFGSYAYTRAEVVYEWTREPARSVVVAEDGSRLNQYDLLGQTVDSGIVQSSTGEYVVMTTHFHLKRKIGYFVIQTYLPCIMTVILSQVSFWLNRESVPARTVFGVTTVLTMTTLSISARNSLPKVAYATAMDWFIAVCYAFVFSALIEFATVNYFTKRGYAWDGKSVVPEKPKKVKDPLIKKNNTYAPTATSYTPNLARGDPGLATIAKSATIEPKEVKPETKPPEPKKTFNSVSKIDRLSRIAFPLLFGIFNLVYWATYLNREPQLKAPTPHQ

[5] = target: Sigma non-opioid intracellular receptor 1 (Homo sapiens) (UniProt Q99720); experiment: SIGMA1/HU Eurofins SafetyScreen44 (BI); conditions: Compound concentration 10.0 uM
[6] = target: Delta-type opioid receptor (Homo sapiens) (UniProt P41143); experiment: DELTA/HU Eurofins SafetyScreen44 (BI); conditions: Compound concentration 10.0 uM
Delta-type opioid receptor (Homo sapiens), sequence (P41143 whole entry): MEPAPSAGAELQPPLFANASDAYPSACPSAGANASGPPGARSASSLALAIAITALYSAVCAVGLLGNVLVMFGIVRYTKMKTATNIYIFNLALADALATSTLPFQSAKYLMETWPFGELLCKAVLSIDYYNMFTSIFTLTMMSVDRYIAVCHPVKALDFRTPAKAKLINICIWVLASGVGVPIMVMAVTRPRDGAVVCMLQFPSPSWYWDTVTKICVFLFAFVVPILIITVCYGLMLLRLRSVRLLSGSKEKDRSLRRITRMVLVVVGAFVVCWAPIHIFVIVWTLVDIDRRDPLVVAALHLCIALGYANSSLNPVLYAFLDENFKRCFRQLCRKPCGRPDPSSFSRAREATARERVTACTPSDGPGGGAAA

[7] = target: Free fatty acid receptor 1 (Homo sapiens, UniProt O14842); experiment: FFAR1 biochemical assay
Free fatty acid receptor 1, sequence (O14842 whole entry): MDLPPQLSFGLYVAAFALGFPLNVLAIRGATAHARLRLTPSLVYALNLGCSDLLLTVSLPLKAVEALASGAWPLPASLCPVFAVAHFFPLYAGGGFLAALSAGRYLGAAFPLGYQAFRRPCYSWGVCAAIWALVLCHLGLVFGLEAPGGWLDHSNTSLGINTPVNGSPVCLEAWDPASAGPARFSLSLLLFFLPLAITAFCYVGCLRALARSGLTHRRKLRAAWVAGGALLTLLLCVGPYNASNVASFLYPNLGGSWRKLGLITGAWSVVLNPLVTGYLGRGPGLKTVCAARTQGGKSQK

[8] = target: T1, Alpha-2C adrenergic receptor (Homo sapiens) (UniProt P18825); conditions: Compound concentration 10.0 uM
T1 sequence (whole entry): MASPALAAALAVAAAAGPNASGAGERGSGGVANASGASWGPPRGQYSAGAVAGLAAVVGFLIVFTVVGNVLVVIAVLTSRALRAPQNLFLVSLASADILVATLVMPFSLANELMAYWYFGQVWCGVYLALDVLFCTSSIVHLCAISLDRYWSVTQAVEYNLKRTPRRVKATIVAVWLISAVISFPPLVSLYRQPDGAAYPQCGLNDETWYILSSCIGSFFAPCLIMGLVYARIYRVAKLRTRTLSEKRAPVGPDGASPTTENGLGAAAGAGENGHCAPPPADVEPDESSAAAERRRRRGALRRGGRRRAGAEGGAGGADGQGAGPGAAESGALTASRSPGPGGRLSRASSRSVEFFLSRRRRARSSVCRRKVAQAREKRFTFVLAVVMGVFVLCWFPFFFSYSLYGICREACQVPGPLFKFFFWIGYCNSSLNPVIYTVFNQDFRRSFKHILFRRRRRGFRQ

[9] = target: Glucocorticoid receptor (Homo sapiens) (UniProt P04150); experiment: GLUCOCORTICO Eurofins SafetyScreen44 (BI); conditions: Compound concentration 10.0 uM
[10] = target: T2, 5-hydroxytryptamine receptor 3A (Homo sapiens) (UniProt P46098); experiment: 5HT3/HU Eurofins SafetyScreen44 (BI); conditions: Compound concentration 10.0 uM
T2 sequence (whole entry): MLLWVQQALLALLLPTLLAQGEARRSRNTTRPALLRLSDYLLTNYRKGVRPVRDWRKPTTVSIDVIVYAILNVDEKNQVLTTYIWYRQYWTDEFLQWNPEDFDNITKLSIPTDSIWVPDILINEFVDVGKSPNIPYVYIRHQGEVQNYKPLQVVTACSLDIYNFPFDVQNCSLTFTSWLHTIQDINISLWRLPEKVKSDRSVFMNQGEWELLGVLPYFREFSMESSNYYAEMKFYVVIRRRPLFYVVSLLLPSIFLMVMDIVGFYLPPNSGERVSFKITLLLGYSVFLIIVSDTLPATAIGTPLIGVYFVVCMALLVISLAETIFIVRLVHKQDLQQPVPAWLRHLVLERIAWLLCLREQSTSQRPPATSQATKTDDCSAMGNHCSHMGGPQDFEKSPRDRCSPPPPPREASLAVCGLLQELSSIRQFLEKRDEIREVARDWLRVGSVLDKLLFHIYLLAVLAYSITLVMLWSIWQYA

[11] = target: Peroxisome proliferator-activated receptor alpha (Homo sapiens) (UniProt Q07869); experiment: PPAR_ALPHA Eurofins SafetyScreen44 (BI); conditions: filed as agonist, Compound concentration 10.0 uM
Peroxisome proliferator-activated receptor alpha (Homo sapiens), sequence (Q07869 whole entry): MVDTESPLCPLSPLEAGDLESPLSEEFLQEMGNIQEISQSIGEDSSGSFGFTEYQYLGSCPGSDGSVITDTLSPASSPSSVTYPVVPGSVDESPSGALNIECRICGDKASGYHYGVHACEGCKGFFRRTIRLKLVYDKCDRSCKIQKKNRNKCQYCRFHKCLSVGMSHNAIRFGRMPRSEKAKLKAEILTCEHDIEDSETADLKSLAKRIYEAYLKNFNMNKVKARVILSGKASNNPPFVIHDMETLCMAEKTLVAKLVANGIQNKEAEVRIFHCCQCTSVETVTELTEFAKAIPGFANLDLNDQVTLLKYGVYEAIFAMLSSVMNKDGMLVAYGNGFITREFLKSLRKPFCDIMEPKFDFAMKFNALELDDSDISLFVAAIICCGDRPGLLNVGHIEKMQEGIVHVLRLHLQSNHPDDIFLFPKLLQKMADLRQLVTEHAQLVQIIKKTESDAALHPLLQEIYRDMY

[12] = target: Prostaglandin E2 receptor EP4 subtype (Homo sapiens) (UniProt P35408); experiment: PEP4_HU Eurofins SafetyScreen44 (BI)
Prostaglandin E2 receptor EP4 subtype (Homo sapiens), sequence (P35408 whole entry): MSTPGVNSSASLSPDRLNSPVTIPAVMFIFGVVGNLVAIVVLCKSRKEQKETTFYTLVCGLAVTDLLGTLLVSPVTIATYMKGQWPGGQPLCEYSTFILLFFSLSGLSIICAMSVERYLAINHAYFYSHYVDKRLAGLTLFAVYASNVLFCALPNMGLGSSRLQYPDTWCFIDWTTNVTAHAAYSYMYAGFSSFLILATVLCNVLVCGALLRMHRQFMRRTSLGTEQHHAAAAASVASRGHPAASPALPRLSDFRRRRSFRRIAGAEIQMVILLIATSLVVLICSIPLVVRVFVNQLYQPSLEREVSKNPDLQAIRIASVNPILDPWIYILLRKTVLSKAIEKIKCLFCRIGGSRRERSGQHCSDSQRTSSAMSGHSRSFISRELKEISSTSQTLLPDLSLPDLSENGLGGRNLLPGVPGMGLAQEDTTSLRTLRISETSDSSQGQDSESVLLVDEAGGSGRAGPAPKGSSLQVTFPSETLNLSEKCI

[13] = target: P2Y purinoceptor 1 (Rattus norvegicus) (UniProt P49651); experiment: P2Y/RAT Eurofins SafetyScreen44 (BI); conditions: Compound concentration 10.0 uM
[14] = target: Sodium-dependent serotonin transporter (Homo sapiens) (UniProt P31645); experiment: 5HTTRANS/HU Eurofins SafetyScreen44 (BI); conditions: Compound concentration 10.0 uM
Sodium-dependent serotonin transporter (Homo sapiens), sequence (P31645 whole entry, looked up): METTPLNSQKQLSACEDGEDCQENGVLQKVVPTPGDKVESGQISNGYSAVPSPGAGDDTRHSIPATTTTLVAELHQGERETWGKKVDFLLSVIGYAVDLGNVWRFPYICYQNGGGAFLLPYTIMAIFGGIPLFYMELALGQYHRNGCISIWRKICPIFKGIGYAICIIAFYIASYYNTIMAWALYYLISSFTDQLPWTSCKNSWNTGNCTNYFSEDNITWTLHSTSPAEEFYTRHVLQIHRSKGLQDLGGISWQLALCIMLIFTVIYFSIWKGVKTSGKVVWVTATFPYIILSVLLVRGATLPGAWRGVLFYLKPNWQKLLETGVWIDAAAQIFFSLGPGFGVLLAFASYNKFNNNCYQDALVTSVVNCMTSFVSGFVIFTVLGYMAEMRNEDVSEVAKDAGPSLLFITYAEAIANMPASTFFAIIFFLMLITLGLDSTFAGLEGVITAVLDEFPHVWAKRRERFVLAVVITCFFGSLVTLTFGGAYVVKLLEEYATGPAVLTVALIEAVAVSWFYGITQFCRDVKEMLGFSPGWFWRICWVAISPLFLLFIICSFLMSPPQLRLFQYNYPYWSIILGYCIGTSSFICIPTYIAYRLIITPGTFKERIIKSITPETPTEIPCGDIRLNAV

[15] = target: Adenosine receptor A3 (Homo sapiens) (UniProt P0DMS8); experiment: A3/H Eurofins SafetyScreen44 (BI); conditions: Compound concentration 10.0 uM
Adenosine receptor A3 (Homo sapiens), sequence (P0DMS8 whole entry): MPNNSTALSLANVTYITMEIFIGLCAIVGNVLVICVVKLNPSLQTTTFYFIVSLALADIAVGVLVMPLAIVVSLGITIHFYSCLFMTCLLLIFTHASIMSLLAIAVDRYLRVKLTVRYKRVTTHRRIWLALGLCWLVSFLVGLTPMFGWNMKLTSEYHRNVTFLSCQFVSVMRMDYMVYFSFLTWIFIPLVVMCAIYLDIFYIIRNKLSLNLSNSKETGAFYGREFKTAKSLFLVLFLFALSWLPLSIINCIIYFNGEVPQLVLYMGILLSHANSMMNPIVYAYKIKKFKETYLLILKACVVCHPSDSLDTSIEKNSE

[16] = target: Kappa-type opioid receptor (Homo sapiens) (UniProt P41145); experiment: KAPPA/HU Eurofins SafetyScreen44 (BI); conditions: Compound concentration 10.0 uM
[17] = target: Voltage-dependent L-type calcium channel subunit alpha-1C (Rattus norvegicus, UniProt P22002); experiment: CA+/DHPSI/RA Eurofins SafetyScreen44 (BI); conditions: compound concentration 10 uM, read-out: % Ctrl
[18] = target: Glutamate receptor ionotropic, NMDA 2A (Rattus norvegicus) (UniProt Q00959); experiment: NMDA/R Eurofins SafetyScreen44 (BI); conditions: Compound concentration 10.0 uM
[19] = target: D(2) dopamine receptor (Homo sapiens) (UniProt P14416); experiment: D2SH_AGON Eurofins SafetyScreen44 (BI); conditions: filed as agonist, Compound concentration 10.0 uM
[20] = target: 5-hydroxytryptamine receptor 2A (Homo sapiens) (UniProt P28223); experiment: 5HT2AH_AGON Eurofins SafetyScreen44 (BI); conditions: filed as agonist, Compound concentration 10.0 uM
[21] = target: Sodium-dependent serotonin transporter (Homo sapiens) (UniProt P31645); experiment: SLC6A4/H Eurofins SafetyScreen44 (BI); conditions: filed as antagonist, Compound concentration 10.0 uM
[22] = target: T3, Muscarinic acetylcholine receptor M1 (Homo sapiens) (UniProt P11229); experiment: M1/H Eurofins SafetyScreen44 (BI); conditions: Compound concentration 10.0 uM
T3 sequence (whole entry): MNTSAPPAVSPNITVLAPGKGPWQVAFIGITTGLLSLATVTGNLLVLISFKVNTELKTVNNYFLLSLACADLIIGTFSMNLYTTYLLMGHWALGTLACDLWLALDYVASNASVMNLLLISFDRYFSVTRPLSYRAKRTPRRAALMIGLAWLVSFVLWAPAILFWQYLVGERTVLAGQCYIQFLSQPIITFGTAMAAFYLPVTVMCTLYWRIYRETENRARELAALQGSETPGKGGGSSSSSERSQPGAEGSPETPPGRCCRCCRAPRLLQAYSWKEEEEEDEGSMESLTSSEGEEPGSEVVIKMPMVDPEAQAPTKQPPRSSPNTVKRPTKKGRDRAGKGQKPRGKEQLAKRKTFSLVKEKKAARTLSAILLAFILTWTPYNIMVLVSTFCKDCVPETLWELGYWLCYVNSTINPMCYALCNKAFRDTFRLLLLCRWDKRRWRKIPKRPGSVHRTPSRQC

[23] = target: Prostaglandin G/H synthase 1 (Homo sapiens) (UniProt P23219); experiment: COX-1 Eurofins SafetyScreen44 (BI); conditions: Compound concentration 10.0 uM
Prostaglandin G/H synthase 1 (Homo sapiens), sequence (P23219 whole entry): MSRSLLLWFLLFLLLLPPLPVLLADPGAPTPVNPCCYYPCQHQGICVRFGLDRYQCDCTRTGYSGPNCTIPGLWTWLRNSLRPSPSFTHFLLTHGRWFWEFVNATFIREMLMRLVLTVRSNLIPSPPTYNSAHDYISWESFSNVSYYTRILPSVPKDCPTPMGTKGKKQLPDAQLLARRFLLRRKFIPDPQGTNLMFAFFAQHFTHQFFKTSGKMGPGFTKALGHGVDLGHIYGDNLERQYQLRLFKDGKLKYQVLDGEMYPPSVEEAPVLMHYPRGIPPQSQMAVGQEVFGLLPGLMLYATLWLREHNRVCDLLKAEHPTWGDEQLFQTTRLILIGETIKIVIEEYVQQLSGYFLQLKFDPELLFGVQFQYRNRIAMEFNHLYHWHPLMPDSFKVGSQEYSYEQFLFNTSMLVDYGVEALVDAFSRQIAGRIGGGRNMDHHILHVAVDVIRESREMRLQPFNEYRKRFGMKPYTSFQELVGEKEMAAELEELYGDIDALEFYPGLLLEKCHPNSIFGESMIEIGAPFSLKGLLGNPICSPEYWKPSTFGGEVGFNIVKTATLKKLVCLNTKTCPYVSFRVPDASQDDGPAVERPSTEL

[24] = target: hERG (KCNH2) (Homo sapiens, UniProt Q12809); experiment: HERG_DOFETILIDE Eurofins SafetyScreen44 (BI); parameters: mode of action inhibitor; conditions: probe [3H] Dofetilide, compound concentration 10 uM, read-out: % Ctrl

Histamine H1 receptor (Homo sapiens), sequence (P35367 whole entry): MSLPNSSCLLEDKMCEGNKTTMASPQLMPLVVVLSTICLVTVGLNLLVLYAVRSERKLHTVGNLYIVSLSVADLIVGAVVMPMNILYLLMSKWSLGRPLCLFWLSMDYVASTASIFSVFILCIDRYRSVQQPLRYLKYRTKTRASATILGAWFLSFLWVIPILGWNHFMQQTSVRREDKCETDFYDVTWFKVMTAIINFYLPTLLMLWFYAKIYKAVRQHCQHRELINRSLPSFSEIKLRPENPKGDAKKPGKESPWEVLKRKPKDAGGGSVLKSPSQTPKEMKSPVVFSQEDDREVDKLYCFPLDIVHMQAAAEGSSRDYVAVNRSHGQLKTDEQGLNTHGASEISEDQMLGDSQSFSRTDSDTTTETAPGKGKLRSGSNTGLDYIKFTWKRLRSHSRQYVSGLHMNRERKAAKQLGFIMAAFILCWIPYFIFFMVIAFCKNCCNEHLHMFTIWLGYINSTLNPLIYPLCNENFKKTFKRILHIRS

SMILES: Cc1cc(OCCC(C)(C)O)cc(C)c1-c1ccc(F)c2c1CC[C@H]2Oc1ccc2c(c1)OC[C@H]2CC(=O)O
- residual activity ([1]; Compound concentration 0.3 uM): 90%
- residual activity ([1]; Compound concentration 1.0 uM): 87%
- residual activity ([1]; Compound concentration 3.0 uM): 68%
- residual activity ([1]; Compound concentration 10.0 uM): 39%
- residual activity ([1]; Compound concentration 30.0 uM): 17%
- residual activity [2]: 122%
- inhibition [3]: 8.54%
- residual activity [4]: 87%
- residual activity [5]: 91%
- residual activity [6]: 74%
- Ki [7]: 23 nM (active)
- inhibition [8]: 14.5%
- residual activity [9]: 67%
- residual activity [10]: 100%
- residual activity [11]: 119%
- residual activity ([12]; Compound concentration 0.3 uM): 102%
- residual activity ([12]; Compound concentration 1.0 uM): 108%
- residual activity ([12]; Compound concentration 3.0 uM): 92%
- residual activity ([12]; Compound concentration 10.0 uM): 55%
- residual activity ([12]; Compound concentration 30.0 uM): 11%
- residual activity [13]: 87%
- residual activity [14]: 106%
- residual activity [15]: 100%
- residual activity [16]: 106%
- activity at 10 µM [17]: 90% (not active)

SMILES: COCCCS(=O)(=O)c1cc(C)c(-c2ccc(F)c3c2CC[C@H]3Oc2ccc3c(c2)OC[C@H]3CC(=O)O)c(C)c1
- inhibition [3]: 15%
- residual activity [18]: 87%
- inhibition [8]: 5.58%
- residual activity [19]: 88%
- residual activity [20]: 101%
- residual activity [21]: 109%
- residual activity [22]: 112%
- residual activity [23]: 88%
- activity at 10 µM [24]: 93% (not active)
